Reference: patent publication US20250163104A1, “MACROCYCLIC IMMUNOMODULATORS” (priority 2021, published 2025)
Where a SMILES comes first, the peptide text is derived from it. Bridges are numbered along the chain shown (N, C = ends). [ ]: non-standard residue; d: D form. The star is where a group is joined. Bip(3'-COOH) = N[C@@H](Cc1ccc(-c2cccc(C(=O)O)c2)cc1)C(=O)O; Phe(4-COOH) = N[C@@H](Cc1ccc(C(=O)O)cc1)C(=O)O; Bip = N[C@@H](Cc1ccc(-c2ccccc2)cc1)C(=O)O; 2Pal = N[C@@H](Cc1ccccn1)C(=O)O; 3Pal = N[C@@H](Cc1cccnc1)C(=O)O; 2Thi = N[C@@H](Cc1cccs1)C(=O)O; Cha = N[C@@H](CC1CCCCC1)C(=O)O; Carboxymethyl = O=C(O)C*; Orn = NCCC[C@H](N)C(=O)O; Dab = NCC[C@H](N)C(=O)O; Dap = NC[C@H](N)C(=O)O

Target: T1, human PD-1 / PD-L1-Ig binding on Jurkat cell line over-expressing human PD-1 (Jurkat-PD-1) (Homo sapiens, UniProt Q15116)
T1 construct: expressed in transfected cells; host or cells: Jurkat
Assay: Jurkat-PD-1 Cell Binding High-Content Screening Assay (CBA)
Assay type: cell-based
Conditions: Jurkat-PD-1 cells, PE-labeled PD-L1-Ig 20 nM final; read-out: Jurkat HPD1_PDL1 IC50
Procedure, shortened: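 Binding of fluorescent PD-L1-Ig (phycoerythrin linked via the Ig tag, 20 nM final) to PD-1-overexpressing Jurkat cells was imaged after a 2 h, 37° C compound pretreatment and 1 hour ligand incubation.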

T1 sequence (Q15116 25-288): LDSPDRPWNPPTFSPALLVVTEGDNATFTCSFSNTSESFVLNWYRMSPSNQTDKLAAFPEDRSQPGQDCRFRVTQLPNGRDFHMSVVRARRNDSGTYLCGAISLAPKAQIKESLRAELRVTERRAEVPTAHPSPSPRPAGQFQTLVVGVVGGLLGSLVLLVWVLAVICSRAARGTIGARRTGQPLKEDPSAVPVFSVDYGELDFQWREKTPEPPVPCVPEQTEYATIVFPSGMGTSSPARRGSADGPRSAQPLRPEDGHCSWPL

SMILES	IC50
Cc1ccccc1C[C@@H]1NC(=O)[C@H](CC(=O)O)NC(=O)[C@H](Cc2ccc(OCC(=O)O)cc2)NC(=O)[C@H](CN)NC(=O)CSC[C@@H](C(=O)N[C@@H](C)C(N)=O)NC(=O)[C@H]([C@@H](C)O)NC(=O)[C@H](C(C)C)NC(=O)[C@H](CC2CCCCC2)NC(=O)[C@H](CCN)NC(=O)[C@@H](CC(C)C)NC(=O)[C@H](CCCN)NC(=O)[C@H](CCC(=O)O)NC(=O)[C@H](Cc2ccc(-c3ccccc3)cc2)NC(=O)[C@H](C(C)C)NC1=O [Compound 2151]	12.1 nM
CC(C)C[C@H]1NC(=O)[C@H](CCCN)NC(=O)[C@H](CCC(=O)O)NC(=O)[C@H](Cc2ccc(-c3ccccc3)cc2)NC(=O)[C@H](C(C)C)NC(=O)[C@H](Cc2ccc(Cl)c(Cl)c2)NC(=O)[C@H](CC(=O)O)NC(=O)[C@H](Cc2ccc(OCC(=O)O)cc2)NC(=O)[C@H](CN)NC(=O)CSC[C@@H](C(=O)N[C@@H](C)C(N)=O)NC(=O)[C@H]([C@@H](C)O)NC(=O)[C@H](C(C)C)NC(=O)[C@H](CC2CCCCC2)NC(=O)[C@H](CCN)NC1=O [Compound 2152]	11.1 nM
CC(C)C[C@H]1NC(=O)[C@H](CCCN)NC(=O)[C@H](CCC(=O)O)NC(=O)[C@H](Cc2ccc(-c3ccccc3)cc2)NC(=O)[C@H](C(C)C)NC(=O)[C@H](Cc2cccs2)NC(=O)[C@H](CC(=O)O)NC(=O)[C@H](Cc2ccc(OCC(=O)O)cc2)NC(=O)[C@H](CN)NC(=O)CSC[C@@H](C(=O)N[C@@H](C)C(N)=O)NC(=O)[C@H]([C@@H](C)O)NC(=O)[C@H](C(C)C)NC(=O)[C@H](CC2CCCCC2)NC(=O)[C@H](CCN)NC1=O [Compound 2153] ({CH2CO}-[Dap]Y(Carboxymethyl)D[2Thi]V[Bip]E[Orn][dL][Dab][Cha]VTCA-NH2; thioether N-14)	10.1 nM
CC(C)C[C@H]1NC(=O)[C@H](CCCN)NC(=O)[C@H](CCC(=O)O)NC(=O)[C@H](Cc2ccc(-c3ccccc3)cc2)NC(=O)[C@H](C(C)C)NC(=O)[C@H](Cc2ccccn2)NC(=O)[C@H](CC(=O)O)NC(=O)[C@H](Cc2ccc(OCC(=O)O)cc2)NC(=O)[C@H](CN)NC(=O)CSC[C@@H](C(=O)N[C@@H](C)C(N)=O)NC(=O)[C@H]([C@@H](C)O)NC(=O)[C@H](C(C)C)NC(=O)[C@H](CC2CCCCC2)NC(=O)[C@H](CCN)NC1=O [Compound 2154] ({CH2CO}-[Dap]Y(Carboxymethyl)D[2Pal]V[Bip]E[Orn][dL][Dab][Cha]VTCA-NH2; thioether N-14)	27.9 nM
CC(C)C[C@H]1NC(=O)[C@H](CCCN)NC(=O)[C@H](CCC(=O)O)NC(=O)[C@H](Cc2ccc(-c3ccccc3)cc2)NC(=O)[C@H](C(C)C)NC(=O)[C@H](CCc2ccccc2)NC(=O)[C@H](CC(=O)O)NC(=O)[C@H](Cc2ccc(OCC(=O)O)cc2)NC(=O)[C@H](CN)NC(=O)CSC[C@@H](C(=O)N[C@@H](C)C(N)=O)NC(=O)[C@H]([C@@H](C)O)NC(=O)[C@H](C(C)C)NC(=O)[C@H](CC2CCCCC2)NC(=O)[C@H](CCN)NC1=O [Compound 2155]	49.3 nM
CC(C)C[C@H]1NC(=O)[C@H](CCCN)NC(=O)[C@H](CCC(=O)O)NC(=O)[C@H](Cc2ccc(-c3ccccc3)cc2)NC(=O)[C@H](C(C)C)NC(=O)[C@H](Cc2cccnc2)NC(=O)[C@H](CC(=O)O)NC(=O)[C@H](Cc2ccc(OCC(=O)O)cc2)NC(=O)[C@H](CN)NC(=O)CSC[C@@H](C(=O)N[C@@H](C)C(N)=O)NC(=O)[C@H]([C@@H](C)O)NC(=O)[C@H](C(C)C)NC(=O)[C@H](CC2CCCCC2)NC(=O)[C@H](CCN)NC1=O [Compound 2156] ({CH2CO}-[Dap]Y(Carboxymethyl)D[3Pal]V[Bip]E[Orn][dL][Dab][Cha]VTCA-NH2; thioether N-14)	322 nM
CC(C)C[C@H]1NC(=O)[C@H](CCCN)NC(=O)[C@H](CCC(=O)O)NC(=O)[C@H](Cc2ccc(-c3ccccc3)cc2)NC(=O)[C@H](C(C)C)NC(=O)[C@H](Cc2c[nH]c3ccccc23)NC(=O)[C@H](CC(=O)O)NC(=O)[C@H](Cc2ccc(C(=O)O)cc2)NC(=O)[C@H](CC(N)=O)NC(=O)CSC[C@@H](C(=O)N[C@@H](C)C(N)=O)NC(=O)[C@H]([C@@H](C)O)NC(=O)[C@H](C(C)C)NC(=O)[C@H](CC2CCCCC2)NC(=O)[C@H](CCN)NC1=O [Compound 2157] ({CH2CO}-N[Phe(4-COOH)]DWV[Bip]E[Orn][dL][Dab][Cha]VTCA-NH2; thioether N-14)	8.1 nM

Second part, the molecule after the results:

IC50	SMILES
7.7 nM	CC(C)C[C@H]1NC(=O)[C@H](CCCN)NC(=O)[C@H](CCC(=O)O)NC(=O)[C@H](Cc2ccc(-c3ccccc3)cc2)NC(=O)[C@H](C(C)C)NC(=O)[C@H](Cc2c[nH]c3ccccc23)NC(=O)[C@H](CC(=O)O)NC(=O)[C@H](Cc2ccc(C(=O)O)cc2)NC(=O)[C@H](Cc2ccccc2)NC(=O)CSC[C@@H](C(=O)N[C@@H](C)C(N)=O)NC(=O)[C@H]([C@@H](C)O)NC(=O)[C@H](C(C)C)NC(=O)[C@H](CC2CCCCC2)NC(=O)[C@H](CCN)NC1=O [Compound 2158] ({CH2CO}-F[Phe(4-COOH)]DWV[Bip]E[Orn][dL][Dab][Cha]VTCA-NH2; thioether N-14)
10.4 nM	CC(C)C[C@H]1NC(=O)[C@H](CCCN)NC(=O)[C@H](CCC(=O)O)NC(=O)[C@H](Cc2ccc(-c3ccccc3)cc2)NC(=O)[C@H](C(C)C)NC(=O)[C@H](Cc2c[nH]c3ccccc23)NC(=O)[C@H](CC(=O)O)NC(=O)[C@H](Cc2ccc(C(=O)O)cc2)NC(=O)[C@H](CN)NC(=O)CSC[C@@H](C(=O)N[C@@H](C)C(N)=O)NC(=O)[C@H]([C@@H](C)O)NC(=O)[C@H](C(C)C)NC(=O)[C@H](CC2CCCCC2)NC(=O)[C@H](CCN)NC1=O [Compound 2159]
14.3 nM	CC(C)C[C@H]1NC(=O)[C@H](CCCN)NC(=O)[C@H](CCC(=O)O)NC(=O)[C@H](Cc2ccc(-c3ccccc3)cc2)NC(=O)[C@H](C(C)C)NC(=O)[C@H](Cc2c[nH]c3ccccc23)NC(=O)[C@H](CC(=O)O)NC(=O)[C@H](Cc2ccc(-c3cccc(C(=O)O)c3)cc2)NC(=O)[C@H](CC(N)=O)NC(=O)CSC[C@@H](C(=O)N[C@@H](C)C(N)=O)NC(=O)[C@H]([C@@H](C)O)NC(=O)[C@H](C(C)C)NC(=O)[C@H](CC2CCCCC2)NC(=O)[C@H](CCN)NC1=O [Compound 2160] ({CH2CO}-N[Bip(3'-COOH)]DWV[Bip]E[Orn][dL][Dab][Cha]VTCA-NH2; thioether N-14)
27 nM	CC(C)C[C@H]1NC(=O)[C@H](CCCN)NC(=O)[C@H](CCC(=O)O)NC(=O)[C@H](Cc2ccc(-c3ccccc3)cc2)NC(=O)[C@H](C(C)C)NC(=O)[C@H](Cc2c[nH]c3ccccc23)NC(=O)[C@H](CC(=O)O)NC(=O)[C@H](Cc2ccc(-c3cccc(C(=O)O)c3)cc2)NC(=O)[C@H](Cc2ccccc2)NC(=O)CSC[C@@H](C(=O)N[C@@H](C)C(N)=O)NC(=O)[C@H]([C@@H](C)O)NC(=O)[C@H](C(C)C)NC(=O)[C@H](CC2CCCCC2)NC(=O)[C@H](CCN)NC1=O [Compound 2161] ({CH2CO}-F[Bip(3'-COOH)]DWV[Bip]E[Orn][dL][Dab][Cha]VTCA-NH2; thioether N-14)
7.7 nM	CC(C)C[C@H]1NC(=O)[C@H](CCCN)NC(=O)[C@H](CCC(=O)O)NC(=O)[C@H](Cc2ccc(-c3ccccc3)cc2)NC(=O)[C@H](C(C)C)NC(=O)[C@H](Cc2c[nH]c3ccccc23)NC(=O)[C@H](CC(=O)O)NC(=O)[C@H](Cc2ccc(-c3cccc(C(=O)O)c3)cc2)NC(=O)[C@H](CN)NC(=O)CSC[C@@H](C(=O)N[C@@H](C)C(N)=O)NC(=O)[C@H]([C@@H](C)O)NC(=O)[C@H](C(C)C)NC(=O)[C@H](CC2CCCCC2)NC(=O)[C@H](CCN)NC1=O [Compound 2162]
17.6 nM	CC(C)C[C@H]1NC(=O)[C@H](CCCN)NC(=O)[C@H](CCC(=O)O)NC(=O)[C@H](Cc2ccc(-c3ccccc3)cc2)NC(=O)[C@H](C(C)C)NC(=O)[C@H](Cc2c[nH]c3ccccc23)NC(=O)[C@H](CC(=O)O)NC(=O)[C@H](Cc2ccc(-c3cccc(C(=O)O)c3)cc2)NC(=O)[C@H](Cc2ccc(OCC(=O)O)cc2)NC(=O)CSC[C@@H](C(=O)N[C@@H](C)C(N)=O)NC(=O)[C@H]([C@@H](C)O)NC(=O)[C@H](C(C)C)NC(=O)[C@H](CC2CCCCC2)NC(=O)[C@H](CCN)NC1=O [Compound 2163]
8 nM	CC(C)C[C@H]1NC(=O)[C@H](CCCN)NC(=O)[C@H](CCC(=O)O)NC(=O)[C@H](Cc2ccc(-c3ccccc3)cc2)NC(=O)[C@H](C(C)C)NC(=O)[C@H](Cc2c[nH]c3ccccc23)NC(=O)[C@H](CC(=O)O)NC(=O)[C@H](Cc2ccc(-c3cccc(C(=O)O)c3)cc2)NC(=O)[C@H](Cc2ccncc2)NC(=O)CSC[C@@H](C(=O)N[C@@H](C)C(N)=O)NC(=O)[C@H]([C@@H](C)O)NC(=O)[C@H](C(C)C)NC(=O)[C@H](CC2CCCCC2)NC(=O)[C@H](CCN)NC1=O [Compound 2164]
24.1 nM	CC(C)C[C@H]1NC(=O)[C@H](CCCN)NC(=O)[C@H](CCC(=O)O)NC(=O)[C@H](Cc2ccc(-c3ccccc3)cc2)NC(=O)[C@H](C(C)C)NC(=O)[C@H](Cc2c[nH]c3ccccc23)NC(=O)[C@H](CC(=O)O)NC(=O)[C@H](Cc2ccc(-c3cccc(C(=O)O)c3)cc2)NC(=O)[C@H](CC(N)=O)NC(=O)CSC[C@@H](C(=O)N[C@@H](C)C(N)=O)NC(=O)[C@H]([C@@H](C)O)NC(=O)[C@H](C(C)C)NC(=O)[C@H](CC2CCCCC2)NC(=O)[C@H](CCN)NC1=O [Compound 2165] ({CH2CO}-N[Bip(3'-COOH)]DWV[Bip]E[Orn][dL][Dab][Cha]VTCA-NH2; thioether N-14)
22.7 nM	CC(C)C[C@H]1NC(=O)[C@H](CCCN)NC(=O)[C@H](CCC(=O)O)NC(=O)[C@H](Cc2ccc(-c3ccccc3)cc2)NC(=O)[C@H](C(C)C)NC(=O)[C@H](Cc2c[nH]c3ccccc23)NC(=O)[C@H](CC(=O)O)NC(=O)[C@H](Cc2ccc(-c3cccc(C(=O)O)c3)cc2)NC(=O)[C@H](CN)NC(=O)CSC[C@@H](C(=O)N[C@@H](C)C(N)=O)NC(=O)[C@H]([C@@H](C)O)NC(=O)[C@H](C(C)C)NC(=O)[C@H](CC2CCCCC2)NC(=O)[C@H](CCN)NC1=O [Compound 2166]
